Measurements: publication PMC5247774 (Bioconjugate Chemistry, 2016)

Target: T1, SERPINB3 (SB3) (Homo sapiens, UniProt P29508)
T1 sequence (P29508 1-390): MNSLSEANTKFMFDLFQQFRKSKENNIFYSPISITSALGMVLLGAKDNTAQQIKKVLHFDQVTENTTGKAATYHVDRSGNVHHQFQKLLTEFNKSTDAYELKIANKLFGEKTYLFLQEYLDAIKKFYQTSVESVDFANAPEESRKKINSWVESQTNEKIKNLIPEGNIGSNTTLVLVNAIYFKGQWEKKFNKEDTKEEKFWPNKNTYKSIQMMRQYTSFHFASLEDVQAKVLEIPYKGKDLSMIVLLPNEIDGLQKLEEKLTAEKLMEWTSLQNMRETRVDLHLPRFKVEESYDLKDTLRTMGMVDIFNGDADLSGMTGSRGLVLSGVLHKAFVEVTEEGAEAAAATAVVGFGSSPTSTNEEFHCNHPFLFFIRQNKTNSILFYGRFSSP
Format: binding
Conditions: SPR, increasing concentrations

interaction with SB3 (in words): did not reveal any interaction
Sequence: CPNFDWDPNNSNAGFAPDLQHDPFFGLP [CysPreS1]
